Assay results taken from the supplement of paper PMC10307832.

Experiments:
Experiment in all cases: relative viability (nuclei count vs DMSO), 5 days (fraction); higher = more cells survive
[1] = compound: COc1cc2nccc(Oc3ccc(NC(=O)C4(C(=O)Nc5ccc(F)cc5)CC4)cc3)c2cc1OC [Cabozantinib] + Cc1cc(Nc2cc(N3CCN(C)CC3)nc(Sc3ccc(NC(=O)C4CC4)cc3)n2)n[nH]1 [Tozasertib] (partner 0.1 µM)
Summary of the method: (§1)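 Lung cancer cell lines were seeded in 1536-well plates and dosed by pin tool the next day, with either a single drug or a fixed anchor-drug dose combined with five library-drug doses (not always all listed) spaced in √10 steps. Five days later, one step fixed the cells and stained their nuclei (final 0.05% Triton X-100, 1% formaldehyde, 1 ug/ml Hoechst), and nuclei were counted on 4× images. Relative viability is the nuclei count in treated wells divided by the count in vehicle wells, and each value is the median of duplicate plates.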

Zosuquidar + Palbociclib = compound: O[C@@H](COc1cccc2ncccc12)CN1CCN([C@@H]2c3ccccc3[C@@H]3[C@H](c4ccccc42)C3(F)F)CC1 [Zosuquidar] + CC(=O)c1c(C)c2cnc(Nc3ccc(N4CCNCC4)cn3)nc2n(C2CCCC2)c1=O [Palbociclib] (partner 0.5 µM)
Summary of the method: as §1

Zosuquidar + Alpelisib = compound: O[C@@H](COc1cccc2ncccc12)CN1CCN([C@@H]2c3ccccc3[C@@H]3[C@H](c4ccccc42)C3(F)F)CC1 [Zosuquidar] + Cc1nc(NC(=O)N2CCC[C@H]2C(N)=O)sc1-c1ccnc(C(C)(C)C(F)(F)F)c1 [Alpelisib] (partner 2 µM)
Summary of the method: as §1

Zosuquidar + Decitabine = compound: O[C@@H](COc1cccc2ncccc12)CN1CCN([C@@H]2c3ccccc3[C@@H]3[C@H](c4ccccc42)C3(F)F)CC1 [Zosuquidar] + Nc1ncn([C@H]2C[C@H](O)[C@@H](CO)O2)c(=O)n1 [Decitabine] (partner 2 µM)
Summary of the method: as §1

Cell Line	relative viability ([1]; first compound 0.02 µM)	relative viability ([1]; first compound 0.06325 µM)	relative viability ([1]; first compound 0.2 µM)	relative viability ([1]; first compound 0.6325 µM)	relative viability ([1]; first compound 2 µM)	relative viability (Zosuquidar + Palbociclib; first compound 0.01 µM)	relative viability (Zosuquidar + Palbociclib; first compound 0.03162 µM)	relative viability (Zosuquidar + Palbociclib; first compound 0.1 µM)	relative viability (Zosuquidar + Palbociclib; first compound 0.3162 µM)	relative viability (Zosuquidar + Palbociclib; first compound 1 µM)	relative viability (Zosuquidar + Alpelisib; first compound 0.01 µM)	relative viability (Zosuquidar + Alpelisib; first compound 0.03162 µM)	relative viability (Zosuquidar + Alpelisib; first compound 0.1 µM)	relative viability (Zosuquidar + Alpelisib; first compound 0.3162 µM)	relative viability (Zosuquidar + Alpelisib; first compound 1 µM)	relative viability (Zosuquidar + Decitabine; first compound 0.01 µM)	relative viability (Zosuquidar + Decitabine; first compound 0.03162 µM)	relative viability (Zosuquidar + Decitabine; first compound 0.1 µM)	relative viability (Zosuquidar + Decitabine; first compound 0.3162 µM)	relative viability (Zosuquidar + Decitabine; first compound 1 µM)
EMC-BAC-2	0.292	0.335	0.334	0.284	0.295	0.508	0.451	0.544	0.577	0.521	0.715	0.793	0.677	0.82	0.761	0.915	0.991	0.9	1.14	0.964
NCI-H838	0.314	0.296	0.288	0.259	0.219	0.217	0.223	0.218	0.225	0.227	0.995	0.994	0.822	1.07	1.07	0.488	0.49	0.486	0.496	0.502
NCI-H1944	0.275	0.274	0.238	0.257	0.238	0.343	0.358	0.342	0.391	0.319	0.836	0.722	0.717	0.837	0.765	0.365	0.454	0.469	0.453	0.439
NCI-H1437	0.413	0.454	0.411	0.428	0.347	0.3	0.333	0.348	0.272	0.32	0.966	0.961	0.935	1.01	0.994	0.567	0.561	0.644	0.56	0.592
RERF-LC-KJ	0.588	0.51	0.505	0.438	0.412	1.1	1.07	1.06	1.1	1.14	0.809	0.913	0.745	0.887	0.874	0.717	0.727	0.691	0.776	0.691
NCI-H1395	0.796	0.779	0.794	0.756	0.719	0.596	0.664		0.64	0.549	1	1.01	0.819	1.17	1.17	0.707	0.765		0.765	0.773
NCI-H1651	0.861	0.739	0.754	0.706	0.48	0.509	0.537	0.489	0.508	0.511	1.05	1.02	0.856	0.915	0.975	0.644	0.685	0.483	0.617	0.588
NCI-H1734	0.292	0.284	0.275	0.286	0.214	0.337	0.383	0.404	0.306	0.344	0.815	0.666	0.631	0.809	0.643	0.522	0.537	0.525	0.456	0.565
NCI-H520	0.52	0.442	0.432	0.392	0.386	0.201	0.195	0.198	0.179	0.208	0.941	0.784	0.778	0.981	0.837	0.505	0.523	0.395	0.472	0.47
PC-14	0.656	0.668		0.547	0.526	0.506	0.475	0.635	0.509	0.52	0.916	1.05	0.864	0.944	0.923	0.224	0.176	0.212	0.195	0.205
NCI-H2347	0.572	0.526	0.575		0.392	0.403	0.466	0.432	0.413	0.43	1.1	0.991	0.833	1.16	0.984	0.689	0.648	0.657	0.694	0.643
NCI-H1793	0.663	0.427	0.271	0.257	0.169	0.271			0.333	0.306	0.717	0.665		0.825	0.776	0.536			0.648	0.488
NCI-H650		0.746	0.756	0.789	0.706	0.305	0.327	0.331	0.364	0.378	1.15	0.94		1.09	1.28	0.292	0.369	0.387	0.398	0.376
